Measured values: PubChem BioAssay (NCI)
Where “and” joins values, the source holds several entries; their conditions need not be identical. Identical values can stand only once.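 Briefly, cells in 96-well plates were exposed to five compound concentrations for 48 h, and endpoints were estimated by linear interpolation. GI50 = concentration required for 50% inhibition of growth. TGI denotes the concentration required for complete inhibition of growth.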

Assays:
Assay in all cases: NCI tumour cell line growth inhibition, 48 h
[1] = tested on: SK-MEL-2 melanoma
[2] = tested on: EKVX NSCLC
[3] = tested on: SF-268 CNS
[4] = tested on: HOP-92 NSCLC
[5] = tested on: UACC-62 melanoma
[6] = tested on: MALME-3M melanoma
[7] = tested on: OVCAR-5 ovarian
[8] = tested on: HCC-2998 colon
[9] = tested on: SK-MEL-28 melanoma
[10] = tested on: SR leukemia

O=C(c1cc2ccccc2o1)N(Cc1ccccc1)c1ccccc1
TGI [1]: > 100 µM | TGI [2]: 78.2 µM | TGI [3]: > 100 µM | TGI [4]: 44 µM | TGI [5]: 28.1 µM | TGI [6]: 59.8 µM | TGI [7]: > 100 µM | TGI [8]: 46.1 µM | TGI [9]: 87 µM | TGI [10]: 68.4 µM

CN(N=O)C(=O)N[C@@H](C=O)[C@@H](O)[C@H](O)[C@H](O)CO
GI50 [1]: > 750 µM | TGI [1]: > 750 µM | GI50 [2]: > 750 µM | TGI [2]: > 750 µM | GI50 [3]: > 750 µM | TGI [3]: > 750 µM | GI50 [4]: > 750 µM | TGI [4]: 621 µM and > 750 µM | GI50 [5]: > 750 µM | TGI [5]: > 750 µM | GI50 [6]: > 750 µM | TGI [6]: 657 µM and > 750 µM | GI50 [7]: > 750 µM | TGI [7]: > 750 µM | GI50 [8]: > 750 µM | TGI [8]: 600 µM and > 750 µM | GI50 [9]: > 750 µM | TGI [9]: > 750 µM | TGI [10]: > 750 µM

CC/C(=C(/CC)c1ccc([O-])cc1)c1ccc([O-])cc1.CC/C(=C(\CC)c1ccc([O-])cc1)c1ccc([O-])cc1.O=C([CH-]C(=O)c1ccccc1)c1ccccc1.O=C([CH-]C(=O)c1ccccc1)c1ccccc1.O=C([CH-]C(=O)c1ccccc1)c1ccccc1.O=C([CH-]C(=O)c1ccccc1)c1ccccc1.[Ti+4].[Ti+4]
GI50 [1]: 25.8 µM | TGI [1]: 73.5 µM | GI50 [2]: 45.5 µM | TGI [2]: > 100 µM | GI50 [3]: 35.8 µM | TGI [3]: > 100 µM | GI50 [4]: 19.5 µM | TGI [4]: 50 µM | GI50 [5]: 18.9 µM | TGI [5]: 52.4 µM | GI50 [6]: 30.9 µM | TGI [6]: > 100 µM | GI50 [7]: 45.8 µM | TGI [7]: > 100 µM | GI50 [8]: 45.7 µM | TGI [8]: > 100 µM | GI50 [9]: 39.5 µM | TGI [9]: > 100 µM | GI50 [10]: 58.5 µM | TGI [10]: > 100 µM

CN(C)c1ccc(/C=C2\N=C(c3ccc([N+](=O)[O-])cc3)OC2=O)cc1
TGI [1]: > 100 µM | TGI [2]: > 100 µM | TGI [3]: > 100 µM | TGI [4]: 97 µM | TGI [5]: > 100 µM | TGI [6]: > 100 µM | TGI [7]: > 100 µM | TGI [8]: 72.4 µM | TGI [9]: > 100 µM | TGI [10]: 86.9 µM

CC(C)(C#N)c1cc(F)cc(C(=O)Nc2cc(Nc3ncccc3-c3ncnc4nc[nH]c34)ccc2F)c1
GI50 [1]: 0.144 µM | TGI [1]: 1.17 µM | GI50 [2]: 6.55 µM | TGI [2]: > 10 µM | GI50 [3]: 3.78 µM | TGI [3]: > 10 µM | GI50 [4]: 0.137 µM | TGI [4]: 0.842 µM | GI50 [5]: 0.0841 µM | TGI [5]: > 10 µM | GI50 [6]: 0.0236 µM | TGI [6]: 0.074 µM | GI50 [7]: 0.451 µM | TGI [7]: > 10 µM | GI50 [8]: 1.12 µM | TGI [8]: > 10 µM | GI50 [9]: 0.0746 µM | TGI [9]: > 10 µM | GI50 [10]: 7.31 µM | TGI [10]: > 10 µM

CNC(=O)c1ccc2cc(C3(O)CCn4cncc43)ccc2c1 (centres undefined)
GI50 [1]: > 100 µM | TGI [1]: > 100 µM | GI50 [2]: > 100 µM | TGI [2]: > 100 µM | GI50 [3]: > 100 µM | TGI [3]: > 100 µM | GI50 [4]: > 100 µM | TGI [4]: > 100 µM | GI50 [5]: > 100 µM | TGI [5]: > 100 µM | GI50 [6]: > 100 µM | TGI [6]: > 100 µM | GI50 [7]: > 100 µM | TGI [7]: > 100 µM | GI50 [8]: > 100 µM | TGI [8]: > 100 µM | GI50 [9]: > 100 µM | TGI [9]: > 100 µM | GI50 [10]: > 100 µM | TGI [10]: > 100 µM

CCOC(=O)c1c2c(n(Cc3ccccc3)c1C)-c1ccccc1C(=O)C2=O
GI50 [1]: 18.4 µM | TGI [1]: 40.8 µM | GI50 [2]: 11.9 µM | TGI [2]: 29.2 µM | GI50 [3]: 19.5 µM | TGI [3]: 47.2 µM | GI50 [4]: 6.54 µM | TGI [4]: 21.6 µM | GI50 [5]: 17.8 µM | TGI [5]: 34.2 µM | GI50 [6]: 13.7 µM | TGI [6]: 29 µM | GI50 [7]: 15.5 µM | TGI [7]: 40.4 µM | GI50 [8]: 6.35 µM | TGI [8]: 19.6 µM | GI50 [9]: 16.4 µM | TGI [9]: 41.4 µM | GI50 [10]: 3.39 µM | TGI [10]: 19 µM

COc1ccc2c(c1)C(=O)C(=O)c1cc(O)c(OC)c(OC)c1-2
GI50 [1]: 1.95 µM | TGI [1]: 1.62 µM and 3.42 µM | GI50 [2]: 0.457 µM | TGI [2]: 2.09 µM and 1.68 µM | GI50 [3]: 1.86 µM | TGI [3]: 1.96 µM and 3.26 µM | GI50 [4]: 1.7 µM | TGI [4]: 1.79 µM and 3.19 µM | GI50 [5]: 1.76 µM | TGI [5]: 1.54 µM and 3.16 µM | GI50 [6]: 1.22 µM | TGI [6]: 1.53 µM and 2.46 µM | GI50 [7]: 1.65 µM | TGI [7]: 2.42 µM and 3.13 µM | TGI [8]: 10.5 µM and 14.1 µM | GI50 [9]: 1.88 µM | TGI [9]: 1.67 µM and 3.58 µM | TGI [10]: 6.39 µM

CN1CCN(c2ccc3nc(-c4c(N)c5c(F)cccc5[nH]c4=O)[nH]c3c2)CC1
GI50 [1]: 0.419 µM and 0.4 µM and 0.936 µM | TGI [1]: 5.41 µM and > 2.24 µM and 22.8 µM | GI50 [2]: 2.38 µM and > 2.44 µM and 4.23 µM | TGI [2]: 9.65 µM and > 7.22 µM and 16.2 µM | GI50 [3]: 1.39 µM and 0.717 µM and 1.65 µM | TGI [3]: 4.16 µM and > 2.83 µM and 10.1 µM | GI50 [4]: 0.621 µM and 0.422 µM and 0.645 µM | TGI [4]: 4.56 µM and > 2.93 µM and 5.82 µM | GI50 [5]: 1.19 µM and 1.28 µM and 2.13 µM | TGI [5]: 6.05 µM and > 2.9 µM and 10 µM | GI50 [6]: 0.901 µM and 0.498 µM and 0.547 µM | TGI [6]: 2.46 µM and 1.75 µM and 1.97 µM | GI50 [7]: 1.42 µM and 1.03 µM and 1.76 µM | TGI [7]: 3.94 µM and > 6.96 µM and 6.94 µM | GI50 [8]: 1.33 µM and 0.867 µM and 1.36 µM | TGI [8]: 5.24 µM and > 4.09 µM and 6.58 µM | GI50 [9]: 1.51 µM and 0.801 µM and 1.43 µM | TGI [9]: 2.96 µM and 2.79 µM and 3.02 µM | GI50 [10]: 0.472 µM and 0.284 µM and 0.502 µM | TGI [10]: 10.2 µM and 1.44 µM and 7.97 µM

COc1ccc2c(c1)C(=O)c1c-2c(Nc2ccc(C(C)=O)cc2)nc2ccccc12
GI50 [1]: 97.7 µM | TGI [1]: > 100 µM | GI50 [2]: 25.2 µM | TGI [2]: > 100 µM | GI50 [3]: 58.7 µM | TGI [3]: > 100 µM | GI50 [4]: 24 µM | TGI [4]: 73.7 µM | GI50 [5]: 21.9 µM | TGI [5]: > 100 µM | GI50 [6]: 49.6 µM | TGI [6]: > 100 µM | GI50 [7]: 29.6 µM | TGI [7]: > 100 µM | GI50 [8]: 97.1 µM | TGI [8]: > 100 µM | GI50 [9]: 52.2 µM | TGI [9]: > 100 µM | GI50 [10]: 55.7 µM | TGI [10]: > 100 µM

CN(C)c1ncnc2c1nnn2C1OC(CO)C(O)C1O (centres undefined)
GI50 [1]: 0.104 µM | TGI [1]: 0.773 µM | GI50 [2]: 2.33 µM | TGI [2]: > 100 µM | GI50 [3]: 0.479 µM | TGI [3]: > 100 µM | GI50 [4]: 0.186 µM | TGI [4]: 1.23 µM | GI50 [5]: 0.246 µM | TGI [5]: 1.55 µM | GI50 [6]: 0.332 µM | TGI [6]: 63.5 µM | GI50 [7]: 2.97 µM | TGI [7]: > 100 µM | GI50 [8]: 0.325 µM | GI50 [9]: 0.404 µM | TGI [9]: > 85.2 µM | GI50 [10]: 0.393 µM | TGI [10]: 7.64 µM

CC1CCN(CCCCCOc2ccc3oc4cc(Cl)ccc4c(=O)c3c2)CC1
GI50 [1]: 9.3 µM | TGI [1]: 17.5 µM | GI50 [2]: 7.03 µM | TGI [2]: 14.3 µM | GI50 [3]: 7.4 µM | TGI [3]: 15.8 µM | GI50 [4]: 6.51 µM | TGI [4]: 14.8 µM | GI50 [5]: 2.24 µM | TGI [5]: 7.73 µM | GI50 [6]: 8.41 µM | TGI [6]: 15.3 µM | GI50 [7]: 6.63 µM | TGI [7]: 13.5 µM | GI50 [8]: 6.25 µM | TGI [8]: 13.1 µM | GI50 [9]: 7.07 µM | TGI [9]: 13.7 µM | GI50 [10]: 1.41 µM | TGI [10]: 5.18 µM

CCOC(=O)/C=C/c1cc2cc(-c3csc4ccccc34)ccc2[nH]1
GI50 [1]: 4.92 µM | TGI [1]: 17.3 µM | GI50 [2]: 7.36 µM | TGI [2]: 20.2 µM | GI50 [3]: 11 µM | TGI [3]: 26.6 µM | GI50 [4]: 10.7 µM | TGI [4]: 29.5 µM | GI50 [5]: 6.76 µM | TGI [5]: 19.6 µM | GI50 [6]: 6.81 µM | TGI [6]: 20.5 µM | GI50 [7]: 21.6 µM | TGI [7]: 42.6 µM | GI50 [8]: 14.4 µM | TGI [8]: 30.2 µM | GI50 [9]: 10.1 µM | TGI [9]: 21.6 µM | GI50 [10]: 1.98 µM | TGI [10]: 8.04 µM

CC(=O)c1cc2c(cc1Nc1c3ccccc3nc3occ(Cl)c13)OCO2
TGI [1]: > 100 µM | GI50 [2]: 0.181 µM | TGI [2]: > 100 µM | GI50 [3]: 0.697 µM | TGI [3]: > 100 µM | GI50 [4]: 12.7 µM | TGI [4]: > 100 µM | GI50 [5]: 0.271 µM | GI50 [6]: 0.0796 µM | TGI [6]: 0.45 µM | GI50 [7]: 0.616 µM | TGI [7]: > 100 µM | GI50 [8]: 0.187 µM | TGI [8]: 0.37 µM | GI50 [9]: 0.541 µM | TGI [9]: > 100 µM | GI50 [10]: 0.12 µM | TGI [10]: 1.06 µM
